≈ marks a conversion by molar mass, not a printed value. Where no end group is shown, it is not given here.
B1: EB2-binding peptide identified via phage display, conjugated to the supported lipid bilayer of DOPC protocells (peptide)
peptide: TGAILHP
modifications: also: conjugated to protocell lipid bilayer, linker not described
notes: also called ephrin B2-targeting peptide; targeting peptide

Columns and labels:
alphaviruses = settings: cited from earlier work
[1] = in vivo; cited from earlier work
[2] = buffer; cited from earlier work
[3] = test system: E. coli ER2420 with pACYC177 or pACYC184; format: cell-based
E. coli ER2420/pACYC177 = assay: microbe, parasite or virus in culture; format: cell-based; settings: Escherichia coli, test array/20-well test strips (FIG. 34, 35)
[4] = target: T1, human ephrin B2 (EB2) expressed on cells (CHO-K1 transfected to express ephrin B2) (human, UniProt P52799 28-333); assay: fluorescence of labelled DOPC protocells modified with the ligand on ephrin B2-expressing cells, against unmodified DOPC protocells (FIGS. 3A-B)
T1 construct: whole, on cells; Cellular receptor for Nipah and Hendra viruses; also called CHO-K1/EB2; CHO-K1/ephrin B2
T1 sequence (P52799 28-333): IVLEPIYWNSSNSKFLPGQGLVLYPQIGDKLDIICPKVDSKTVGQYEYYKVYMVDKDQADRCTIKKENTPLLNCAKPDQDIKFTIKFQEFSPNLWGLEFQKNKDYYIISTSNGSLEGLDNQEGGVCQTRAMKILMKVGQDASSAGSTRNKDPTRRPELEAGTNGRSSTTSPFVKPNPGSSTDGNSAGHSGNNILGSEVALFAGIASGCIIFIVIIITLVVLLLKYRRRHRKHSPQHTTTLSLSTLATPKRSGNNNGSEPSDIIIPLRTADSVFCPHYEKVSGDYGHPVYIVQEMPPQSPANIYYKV

Molecule | killing action detected by delta-Ct for PMA treatment [3] | MIC (E. coli ER2420/pACYC177) | other results
NC(=O)c1ncn([C@@H]2O[C@H](CO)[C@@H](O)[C@H]2O)n1 [Ribavirin] | – | – | IC50 values for several alphaviruses (alphaviruses): low micromolar range; circulation half-life [1]: < 48 h
CC1(C)S[C@@H]2[C@H](NC(=O)[C@H](N)c3ccc(O)cc3)C(=O)N2[C@H]1C(=O)O [amoxicillin] | in the susceptible strain (pACYC184) and not in the resistant strain (pACYC177) | > 128 µg/mL | half-life in aqueous media/solution [2]: on the order of a few hours
CO/N=C(\C(=O)N[C@@H]1C(=O)N2C(C(=O)O)=C(COC(C)=O)CS[C@H]12)c1csc(N)n1 [cefotaxime] | in both strains | – | –
O=C(O)c1cn(C2CC2)c2cc(N3CCNCC3)c(F)cc2c1=O [ciprofloxacin] | rapidly bactericidal to both E. coli at low concentrations | < 0.031 µg/mL | –
O=C(O)[C@H]1/C(=C/CO)O[C@@H]2CC(=O)N21 [clavulanic acid] | – | – | half-life in aqueous media/solution [2]: a few hours
NC[C@H]1O[C@H](O[C@H]2[C@H](O)[C@@H](O[C@H]3O[C@H](CO)[C@@H](O)[C@H](N)[C@H]3O)[C@H](N)C[C@@H]2N)[C@H](O)[C@@H](O)[C@@H]1O [kanamycin] | – | > 256 µg/mL | –
CO[C@H]1/C=C/O[C@@]2(C)Oc3c(C)c(O)c4c(O)c(c(/C=N/N5CCN(C)CC5)c(O)c4c3C2=O)NC(=O)/C(C)=C\C=C\[C@H](C)[C@H](O)[C@@H](C)[C@@H](O)[C@@H](C)[C@H](OC(C)=O)[C@@H]1C [rifampicin] | – | 8 µg/mL (≈ 9.72 µM) | –
B1 | – | – | fold increase in selective binding and internalization [4]: 100 fold

From patent US20190262469A1 (priority 2015, published 2019)
